Data as given in PubChem BioAssay AID1918939 (Molecular Pharmacology Branch, DTP, NCI, 2023).

Tested on: 653999-131-R-J2-PDC complex spheroid viability
Experiment: Anticancer human tumor 653999-131-R-J2-PDC patient-derived lung adenocarcinoma cell line growth inhibition
Details: for IC50: curve of first compound; for viability, T/C: stronger effect = lower value
In short: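 Multicellular complex spheroids of tumor cells with human endothelial cells (HUVEC) and mesenchymal stem cells; the LSD1 inhibitor iadademstat was combined with standard-of-care or investigational agents. Top concentration at or near clinical Cmax, half-log dilutions; final DMSO ≤0.25%.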

[1] = second compound 0.1 µM, first compound 0.00316 µM
[2] = second compound 0.1 µM, first compound 0.01 µM
[3] = second compound 0.1 µM, first compound 0.0316 µM
[4] = second compound 0.1 µM, first compound 0.1 µM
[5] = second compound 0.316 µM, first compound 0.00316 µM
[6] = second compound 0.316 µM, first compound 0.01 µM
[7] = second compound 0.316 µM, first compound 0.0316 µM
[8] = second compound 0.316 µM, first compound 0.1 µM
[9] = second compound 1 µM, first compound 0.00316 µM
[10] = second compound 1 µM, first compound 0.01 µM
[11] = second compound 1 µM, first compound 0.0316 µM
[12] = second compound 1 µM, first compound 0.1 µM
[13] = second compound 3.16 µM, first compound 0.00316 µM
[14] = second compound 3.16 µM, first compound 0.01 µM
[15] = second compound 3.16 µM, first compound 0.0316 µM
[16] = second compound 3.16 µM, first compound 0.1 µM
[17] = second compound 10 µM, first compound 0.00316 µM
[18] = second compound 10 µM, first compound 0.01 µM
[19] = second compound 10 µM, first compound 0.0316 µM
[20] = second compound 10 µM, first compound 0.1 µM
[21] = second compound 0.1 µM, first compound 0.00949 µM
[22] = second compound 0.1 µM, first compound 0.03 µM
[23] = second compound 0.1 µM, first compound 0.0949 µM
[24] = second compound 0.1 µM, first compound 0.3 µM
[25] = second compound 0.1 µM, first compound 0.949 µM
[26] = second compound 0.1 µM, first compound 3 µM
[27] = second compound 0.316 µM, first compound 0.00949 µM
[28] = second compound 0.316 µM, first compound 0.03 µM
[29] = second compound 0.316 µM, first compound 0.0949 µM
[30] = second compound 0.316 µM, first compound 0.3 µM
[31] = second compound 0.316 µM, first compound 0.949 µM
[32] = second compound 0.316 µM, first compound 3 µM
[33] = second compound 1 µM, first compound 0.00949 µM
[34] = second compound 1 µM, first compound 0.03 µM
[35] = second compound 1 µM, first compound 0.0949 µM
[36] = second compound 1 µM, first compound 0.3 µM
[37] = second compound 1 µM, first compound 0.949 µM
[38] = second compound 1 µM, first compound 3 µM
[39] = second compound 3.16 µM, first compound 0.00949 µM
[40] = second compound 3.16 µM, first compound 0.03 µM
[41] = second compound 3.16 µM, first compound 0.0949 µM
[42] = second compound 3.16 µM, first compound 0.3 µM
[43] = second compound 3.16 µM, first compound 0.949 µM
[44] = second compound 3.16 µM, first compound 3 µM
[45] = second compound 10 µM, first compound 0.00949 µM
[46] = second compound 10 µM, first compound 0.03 µM
[47] = second compound 10 µM, first compound 0.0949 µM
[48] = second compound 10 µM, first compound 0.3 µM
[49] = second compound 10 µM, first compound 0.949 µM
[50] = second compound 10 µM, first compound 3 µM
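Also: spheroids exposed to agents for seven days before readout.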

## COc1cc(Nc2ncc3c(n2)-c2ccc(Cl)cc2C(c2c(F)cccc2OC)=NC3)ccc1C(=O)O + NC1CCC(NC2CC2c2ccccc2)CC1
Second compound 0.1 µM
  IC50: > 1000 nM
Second compound 0.316 µM
  IC50: > 1000 nM
Second compound 1 µM
  IC50: > 1000 nM
Second compound 3.16 µM
  IC50: > 1000 nM
Second compound 10 µM
  IC50: > 1000 nM
[1]
  viability, T/C: 78.7%
[2]
  viability, T/C: 89.2%
[3]
  viability, T/C: 74.2%
[4]
  viability, T/C: 78.5%
Second compound 0.1 µM, first compound 0.316 µM
  viability, T/C: 73.7%
Second compound 0.1 µM, first compound 1 µM
  viability, T/C: 76.1%
[5]
  viability, T/C: 85.4%
[6]
  viability, T/C: 72.8%
[7]
  viability, T/C: 63.9%
[8]
  viability, T/C: 68.1%
Second compound 0.316 µM, first compound 0.316 µM
  viability, T/C: 71.3%
Second compound 0.316 µM, first compound 1 µM
  viability, T/C: 75.6%
[9]
  viability, T/C: 76.6%
[10]
  viability, T/C: 84.3%
[11]
  viability, T/C: 78.6%
[12]
  viability, T/C: 69.2%
Second compound 1 µM, first compound 0.316 µM
  viability, T/C: 61.9%
Second compound 1 µM, first compound 1 µM
  viability, T/C: 74.9%
[13]
  viability, T/C: 92.2%
[14]
  viability, T/C: 73.9%
[15]
  viability, T/C: 79.2%
[16]
  viability, T/C: 65.6%
Second compound 3.16 µM, first compound 0.316 µM
  viability, T/C: 79.7%
Second compound 3.16 µM, first compound 1 µM
  viability, T/C: 72%
[17]
  viability, T/C: 92.9%
[18]
  viability, T/C: 81.4%
[19]
  viability, T/C: 71.7%
[20]
  viability, T/C: 71.2%
Second compound 10 µM, first compound 0.316 µM
  viability, T/C: 60.9%
Second compound 10 µM, first compound 1 µM
  viability, T/C: 79.7%

## Cn1ncnc1C1c2n[nH]c(=O)c3cc(F)cc(c23)NC1c1ccc(F)cc1 (stereo not given) + NC1CCC(NC2CC2c2ccccc2)CC1
Second compound 0.1 µM
  IC50: > 100 nM
Second compound 0.316 µM
  IC50: > 100 nM
Second compound 1 µM
  IC50: > 100 nM
Second compound 3.16 µM
  IC50: > 100 nM
Second compound 10 µM
  IC50: > 100 nM
Second compound 0.1 µM, first compound 0.000316 µM
  viability, T/C: 86.9%
Second compound 0.1 µM, first compound 0.001 µM
  viability, T/C: 86.9%
[1]
  viability, T/C: 85.6%
[2]
  viability, T/C: 73%
[3]
  viability, T/C: 80.9%
[4]
  viability, T/C: 71.4%
Second compound 0.316 µM, first compound 0.000316 µM
  viability, T/C: 85.4%
Second compound 0.316 µM, first compound 0.001 µM
  viability, T/C: 82.5%
[5]
  viability, T/C: 82.1%
[6]
  viability, T/C: 87.2%
[7]
  viability, T/C: 73.9%
[8]
  viability, T/C: 86%
Second compound 1 µM, first compound 0.000316 µM
  viability, T/C: 95.6%
Second compound 1 µM, first compound 0.001 µM
  viability, T/C: 81.3%
[9]
  viability, T/C: 82.9%
[10]
  viability, T/C: 74.9%
[11]
  viability, T/C: 75.9%
[12]
  viability, T/C: 78.1%
Second compound 3.16 µM, first compound 0.000316 µM
  viability, T/C: 94.6%
Second compound 3.16 µM, first compound 0.001 µM
  viability, T/C: 91.8%
[13]
  viability, T/C: 91.1%
[14]
  viability, T/C: 87.3%
[15]
  viability, T/C: 76.7%
[16]
  viability, T/C: 72.1%
Second compound 10 µM, first compound 0.000316 µM
  viability, T/C: 96.9%
Second compound 10 µM, first compound 0.001 µM
  viability, T/C: 99.4%
[17]
  viability, T/C: 97.6%
[18]
  viability, T/C: 84.5%
[19]
  viability, T/C: 72%
[20]
  viability, T/C: 78.2%

## NS(=O)(=O)OCC1CC(n2ccc3c(NC4CCc5ccccc54)ncnc32)CC1O (stereo not given) + NC1CCC(NC2CC2c2ccccc2)CC1
Second compound 0.1 µM
  IC50: > 3000 nM
Second compound 0.316 µM
  IC50: > 3000 nM
Second compound 1 µM
  IC50: > 3000 nM
Second compound 3.16 µM
  IC50: > 3000 nM
Second compound 10 µM
  IC50: > 3000 nM
[21]
  viability, T/C: 97.5%
[22]
  viability, T/C: 80.8%
[23]
  viability, T/C: 106%
[24]
  viability, T/C: 107%
[25]
  viability, T/C: 54.7%
[26]
  viability, T/C: 61.1%
[27]
  viability, T/C: 97.8%
[28]
  viability, T/C: 81.6%
[29]
  viability, T/C: 105%
[30]
  viability, T/C: 114%
[31]
  viability, T/C: 55.6%
[32]
  viability, T/C: 50.7%
[33]
  viability, T/C: 94.4%
[34]
  viability, T/C: 92.8%
[35]
  viability, T/C: 91.2%
[36]
  viability, T/C: 116%
[37]
  viability, T/C: 60.5%
[38]
  viability, T/C: 56.2%
[39]
  viability, T/C: 105%
[40]
  viability, T/C: 98.7%
[41]
  viability, T/C: 100%
[42]
  viability, T/C: 105%
[43]
  viability, T/C: 58.6%
[44]
  viability, T/C: 59.2%
[45]
  viability, T/C: 116%
[46]
  viability, T/C: 101%
[47]
  viability, T/C: 105%
[48]
  viability, T/C: 118%
[49]
  viability, T/C: 63.7%
[50]
  viability, T/C: 54.2%

## O=C(C=Cc1cccc(S(=O)(=O)Nc2ccccc2)c1)NO + NC1CCC(NC2CC2c2ccccc2)CC1
Second compound 0.1 µM
  IC50: 435 nM
Second compound 0.316 µM
  IC50: 538 nM
Second compound 1 µM
  IC50: 513 nM
Second compound 3.16 µM
  IC50: 501 nM
Second compound 10 µM
  IC50: 449 nM
[21]
  viability, T/C: 81.9%
[22]
  viability, T/C: 97.9%
[23]
  viability, T/C: 108%
[24]
  viability, T/C: 56.1%
[25]
  viability, T/C: 28.6%
[26]
  viability, T/C: 3.54%
[27]
  viability, T/C: 89.3%
[28]
  viability, T/C: 82.6%
[29]
  viability, T/C: 91.4%
[30]
  viability, T/C: 70.3%
[31]
  viability, T/C: 29.3%
[32]
  viability, T/C: 3.12%
[33]
  viability, T/C: 96.4%
[34]
  viability, T/C: 100%
[35]
  viability, T/C: 88.3%
[36]
  viability, T/C: 71.6%
[37]
  viability, T/C: 26.2%
[38]
  viability, T/C: 2.35%
[39]
  viability, T/C: 98.4%
[40]
  viability, T/C: 83.1%
[41]
  viability, T/C: 92.4%
[42]
  viability, T/C: 61.9%
[43]
  viability, T/C: 32.3%
[44]
  viability, T/C: 2.77%
[45]
  viability, T/C: 95.4%
[46]
  viability, T/C: 96%
[47]
  viability, T/C: 101%
[48]
  viability, T/C: 60.3%
[49]
  viability, T/C: 25.8%
[50]
  viability, T/C: 3.12%
